Reference: patent publication US8680075B2, “Methods and compositions for inhibiting cellular proliferation and surgical adhesion” (Novelmed Therapeutics, Inc., priority 2009, dated 2014)
Entries after “also recorded” stand apart in the source; their conditions may differ.

Key:
3T3 cells = assay: 3T3 cell proliferation assay (Cy Quant fluorescence); format: cell-based; details: 1 to 600 μg/ml, 5 days, DMEM 10% FCS
Protocol: Approximately 50,000 cells were plated in a 96 well ELISA plate. The cells were allowed to grow in DMEM with 10% FCS media for 5 days, following which the cells were treated with Cy Quant assay and the inhibition of cellular proliferation was measured using the decreased fluorescence intensity. To evaluate the effect of various concentrations of NM2040 in the cellular proliferation assay, cultures were treated with concentrations ranging from 1 to 600 μg/ml. The total fluorescence intensity was plotted against the concentrations.

C6 cells = assay: Glioma (C6 cell) proliferation in cloning ring culture; format: cell-based; details: five days; for concentration of maximal effect on glioma proliferation: C6 cells
Protocol: In a six well plate, a cloning ring of 6 mm diameter was placed and 60 μl aliquot of cellular suspension (stock containing 320,000 cells/ml of C6 cells) was prepared and placed in the center of each well of a six well plate in the cloning ring. After 4 h, the media was removed and the cells were incubated with Opti-MEM 1× media with and without the compound. These cultures were incubated at 37° C. and with 10% CO2 for five days, following which the pictures were taken as shown in FIG. 2. The compound effect appears to be dose dependent with maximal effect shown at […]. The first panel is for controls (untreated), the second panel at 3 mg/ml, the third panel at 1.5 mg/ml, the fourth panel at 0.75 mg/ml, and the fifth panel at 0.36 mg/ml.

C3a = C3a formation in whole blood tubing loop (ELISA); format: cell-based; details: heparinized human whole blood 1:1 plasmalyte, tubing loop 2 hours 37° C.
Protocol: (§1) Chemotactic peptides are produced at the injury site, which can attract inflammatory cells at the injury site causing inflammation. NM2040 was tested to determine if this compound would inhibit the production of the C3a and C5a. The compound was incubated with blood at 37 degree in a rotating tubing loops. Whole blood from a healthy donor was collected into a polypropylene tube containing 5 units of heparin per ml of whole blood. The whole blood was diluted 1:1 with plasmalyte and aliquoted in 2 ml aliquots with and without drug treatments. PVC tubings of 4 mm diameter were filled with 2.0 ml of the heparinized human blood and closed into a loop with a short piece of silicon tubing. Sample and control tubing loops were rotated vertically in a water bath for 2 hours at 37° C. After incubation, blood samples were transferred into 5 ml siliconized eppendorf tubes. The samples were separated into two aliquots; one aliquot was subjected to flow cytometry studies and the other aliquot was centrifuged to separate the plasma for the measurement of C3a and C5a. The plasma samples were diluted to 5% with sample diluent buffer and the amounts of C3a and C5a were determined using ELISA assay kits following the manufacturer's instructions (Quidel Corporation, San Diego Calif.). […] In the same experiment, NM3015 was also evaluated. […]

C5a = C5a formation in whole blood tubing loop (ELISA); format: cell-based; details: heparinized human whole blood 1:1 plasmalyte, tubing loop 2 hours 37° C.
Protocol: as §1

alternative pathway = assay: Alternative pathway (AP) activation; format: cell-based, human
Protocol: as §1

platelets [1] = assay: Platelet damage / platelet number after tubing loop (flow cytometry CD61/CD62P); format: cell-based, human; details: blood after tubing loop, FITC CD61 positive platelets
Protocol: as §1, with “The samples were separated into two aliquots; one aliquot was subjected to flow cytometry studies and the other aliquot was centrifuged to separate the plasma for the measurement of C3a and C5a.” left out
Aliquots of blood following the tubing loop were stained with fluorescent labeled antibodies for flow cytometry studies. […] The samples were subjected to flow cytometry using CellQuest, BD-LSR I and the data were analyzed using WinList 5.0. […]

neutrophils = assay: Neutrophil activation after tubing loop (flow cytometry CD15/CD11b); format: cell-based, human; details: blood after tubing loop
Protocol: as §1, with “Sample and control tubing loops were rotated vertically in a water bath for 2 hours at 37° C. After incubation, blood samples were transferred into 5 ml siliconized eppendorf tubes. The samples were separated into two aliquots; one aliquot was subjected to flow cytometry studies and the other aliquot was centrifuged to separate the plasma for the measurement of C3a and C5a.” left out
(§2) Aliquots of blood following the tubing loop were stained with fluorescent labeled antibodies for flow cytometry studies. […] The samples were subjected to flow cytometry using CellQuest, BD-LSR I and the data were analyzed using WinList 5.0. Ln Median was used for calculating the shift in CD11b staining for neutrophils and monocytes. % gated dual labeled cells were quantified for platelet populations.

monocytes = assay: Monocyte activation after tubing loop (flow cytometry CD14/CD11b); format: cell-based, human; details: blood after tubing loop
Protocol: as §1, with “Sample and control tubing loops were rotated vertically in a water bath for 2 hours at 37° C. After incubation, blood samples were transferred into 5 ml siliconized eppendorf tubes. The samples were separated into two aliquots; one aliquot was subjected to flow cytometry studies and the other aliquot was centrifuged to separate the plasma for the measurement of C3a and C5a.” left out
as §2

platelets [2] = assay: Platelet activation after tubing loop (flow cytometry CD61/CD62P); format: cell-based, human; details: blood after tubing loop
Protocol: as §1, with “Sample and control tubing loops were rotated vertically in a water bath for 2 hours at 37° C. After incubation, blood samples were transferred into 5 ml siliconized eppendorf tubes. The samples were separated into two aliquots; one aliquot was subjected to flow cytometry studies and the other aliquot was centrifuged to separate the plasma for the measurement of C3a and C5a.” left out
as §2

[3] = test system: epidural fibrosis after lumbar laminectomy; assay: Rat laminectomy epidural fibrosis model, Example 6; format: in vivo; details: two weeks after laminectomy
From the text: The scar tissue attachment to the spinal cord is believed to be the cause of long-term, recurrent pain following laminectomy procedures. The epidural fibrosis refers to the scar tissue that forms following a laminectomy procedure. Laminectomy refers to back surgery of the lamina. Scar tissue forms within the laminectomy site and binds the undersurface of the erector spinae muscles to the posterior and lateral surfaces of the dura mater and to the nerve roots exiting through the dura matter. Epidural fibrosis was investigated after lumbar laminectomy in rats. In this model, a laminectomy is performed at the lumbar 3 (L3) and 5 (L5) vertebrae and then the test agent is applied to the laminectomy site. Subsequently, the laminectomy sites are examined for fibrosis by gross dissection.
Laminectomies were performed at lumbar vertebrae L3 and L5 to provide auto-controls within each animal. Gelfoam-NM2040 mix was prepared and used on Laminectomy sites in rats. Lewis inbred rats were anesthetized isofluorane. The dorsal skin was incised and the paraspinal muscles were separated from the spinous processes of lumbar vertebrae L2 through L6 to expose the L3 and L5. The spinous processes of L3 and L5 were removed and the vertebral lamina was also removed creating a rectangular laminectomy defect. The test material was placed onto the laminectomy site. […] The site and the tissue were scored 0 to 2. […]

[4] = test system: epidural fibrosis after laminectomy; assay: Rat laminectomy epidural fibrosis model, Example 8; format: in vivo
Protocol: Epidural fibrosis was investigated after laminectomies in adult Lewis rats. Laminectomies were performed at the lumbar 3 (L3) and 5 (L5) vertebrae. The test agent gel was applied to one site and saline (control) was applied to the other. Two weeks later, the laminectomy sites were examined for fibrosis by gross dissection as previously described. Briefly, rats were anesthetized. The dorsal skin was incised and the paraspinal muscles were separated from the spinous processes of lumbar vertebrae L2 through L6 to expose L3 and L5. The spinous processes of L3 and L5 and the vertebral lamina were removed, creating a rectangular laminectomy defect approximately 5×2 mm (FIG. 11A). The test material NM2040, or vehicle was placed onto the laminectomy site according to randomized, coded protocol (FIG. 11B). The formulation of NM2040 consisted of 10% gel foam powder, 20 mg/ml final concentration in sterile saline. The mixtures were placed in a syringe, autoclaved and allowed to cool to room temperature prior to placement into the laminectomy site. The fascia overlying the paraspinal muscles was sutured 5-0 polydoxanone PDS resorbable suture (Ethicon) and the skin incision was closed with 7.5 mm Michel wound clips. After two weeks, animals were anesthetized and subjected to gross evaluation. For gross evaluation, the wound site was reopened by incising the skin and separating the paraspinal muscles. Epidural scar formation was designated as the connective tissue between the test material and the dura mater. The thickness and toughness of the deep scar was evaluated by blunt dissection and scored 0 to 2.0 being the “no adhesions” with the dura mater clearly visible, 1 being a thin, lose connective tissue covering the dura that was easily removed, and 2 being a thick, dense tenacious adhesion that was difficult to impossible to remove without tearing the dura. Scoring was completed without knowledge of treatment at any of the laminectomy sites.

## conjugate of dextran sulfate and 2-(butane-1-sulfonylamino)-3-[4-(4-piperidin-4-yl-butoxy)-phenyl]-propionic acid [NM2040]
3T3 cells
  3T3 cell proliferation: Inhibits
C6 cells; C6 cells, 0.36, 0.75, 1.5 and 3 mg/ml
  glioma proliferation, effect: inhibitory at all doses
C6 cells; first statement
  concentration of maximal effect on glioma proliferation: 3 µg/mL
C6 cells; second statement
  concentration of maximal effect on glioma proliferation: ~1000 µg/mL
C3a
  C3a production: prevent C3a and C5a production in a dose dependent manner
C5a
  C5a production: prevent C3a and C5a production in a dose dependent manner
Alternative pathway
  activation of the alternative pathway: inhibits activation of the alternative pathway
Platelets [1]
  effect on platelets (platelet damage / number): does not affect the platelets; also recorded: does not destroy platelets
neutrophils
  neutrophil activation (CD11b shift): significant inhibition of cellular activation
monocytes
  monocyte activation (CD11b shift): significant inhibition of cellular activation
Platelets [2]
  platelet activation (% gated CD61/CD62P dual labeled): significant inhibition of cellular activation
[3]
  adhesion scores compared to saline controls: significantly lower
[4]; two weeks after laminectomy
  adhesion scores compared to treatment with vehicle: significantly reduces adhesion scores
  gross appearance of laminectomy site: thin easily removed connective tissue above the dura to no adhesions
[4]; two weeks after laminectomy, gel at site, saline sites scored 2
  average gross evaluation score of epidural scar (0 to 2): 0.5
[4]; two weeks, compared to controls
  histological sections of the vertebral column at L3 (Masson trichrome): smooth filling
[4]; two weeks, compared to saline controls
  MRI appearance of laminectomy site: the tissue appears to be smooth
